Assay results reported in PMC5931096, “A Phase I study of the novel immunomodulatory agent PG545 (pixatimod) in subjects with advanced solid tumours” (British Journal of Cancer, 2018).

Test: Phase I dose-escalation: safety, tolerability, DLT and MTD of weekly 1-h IV infusion
Assay type: in vivo
Experimental: The study was an open-label, multicentre, phase 1 dose-escalation study using a 3 + 3 design. The primary objective was to determine the MTD of weekly administered PG545 via IV infusion. Secondary objectives were to characterize safety, tolerability, clinical activity, PK and PD biomarkers.
Patients continued treatment until disease progression, unacceptable toxicity or withdrawal (either voluntarily or investigator-decision).
All patients were assessed for safety, those who received at least one dose of PG545 were evaluated for efficacy. Safety assessment included the incidence of all adverse events (AEs), irrespective of relationship to study drug, according to the National Cancer Institute Common Terminology Criteria for Adverse Events, version 4.0, and the incidence of patients experiencing dose modifications and/or premature discontinuation of study drug. Dose-limiting toxicities (DLTs) used to determine the MTD were defined as occurring during Cycle 1 of treatment only and related to PG545 according to investigator assessment. If no DLT occurred in the first three subjects, the next three-subject cohort was enrolled at the next highest available dose level. If a single DLT occurred, an additional three subjects was enrolled at the same dose level. Dose escalation continued until two subjects of the cohort experienced a DLT; this was defined as the toxic dose level. The dose-escalation phase was completed and MTD determined by reducing the dose to the next lowest dose compared to the toxic dose and expanding this cohort to at least 6 subjects.

[1] = 150 mg, during or 1 h post-infusion, typical
[2] = Life threatening/Fatal, Unrelated, Safety Set

CC(C)CCC[C@@H](C)[C@H]1CC[C@H]2[C@@H]3CC[C@H]4C[C@@H](O[C@@H]5O[C@H](COS(=O)(=O)O)[C@@H](O[C@H]6O[C@H](COS(=O)(=O)O)[C@@H](O[C@H]7O[C@H](COS(=O)(=O)O)[C@@H](O[C@H]8O[C@H](COS(=O)(=O)O)[C@@H](OS(=O)(=O)O)[C@H](OS(=O)(=O)O)[C@H]8OS(=O)(=O)O)[C@H](OS(=O)(=O)O)[C@H]7OS(=O)(=O)O)[C@H](OS(=O)(=O)O)[C@H]6OS(=O)(=O)O)[C@H](OS(=O)(=O)O)[C@H]5OS(=O)(=O)O)CC[C@]4(C)[C@H]3CC[C@]12C [PG545]
4 (17.5%): TEAE: Diarrhoea (Mild, Related, Safety Set) | TEAE: Nausea (Mild, Related, Safety Set)
11 (47.8%): TEAE: General disorders and administration site conditions (Mild, Related, Safety Set)
200/126: Blood pressure, substantial increase in one subject, to (150 mg, one subject)
1 (11) n (%): Acute pulmonary oedema, related AE leading to discontinuation (150 mg, N = 9) | Acute pulmonary oedema, related serious AE (150 mg, N = 9) | Acute pulmonary oedema, related severe AE (150 mg, N = 9) | Blood cholesterol increased, related severe AE (150 mg, N = 9) | Blood cholesterol increased, treatment-related AE (150 mg, N = 9) | Blood pressure increased, related severe AE (150 mg, N = 9) | Chills, related severe AE (150 mg, N = 9) | Diarrhoea, treatment-related AE (150 mg, N = 9) | Epistaxis, related AE leading to discontinuation (150 mg, N = 9) | Epistaxis, related serious AE (150 mg, N = 9) | Epistaxis, related severe AE (150 mg, N = 9) | Fatigue, treatment-related AE (150 mg, N = 9) | Hypertension, related AE leading to discontinuation (150 mg, N = 9) | Hypertension, related serious AE (150 mg, N = 9) | Infusion-related reaction, related serious AE (150 mg, N = 9) | Infusion-related reaction, related severe AE (150 mg, N = 9) | Nausea, treatment-related AE (150 mg, N = 9) | Pyrexia, treatment-related AE (150 mg, N = 9)
4 (44) n (%): Chills, treatment-related AE (150 mg, N = 9)
100 mm Hg: Diastolic pressure during hypertension events, increase to [1]
0 n (%): Chills, related AE leading to discontinuation (150 mg, N = 9) | Fatigue, related severe AE (150 mg, N = 9) | Headache, treatment-related AE (150 mg, N = 9) | Hypercholesterolemia, treatment-related AE (150 mg, N = 9) | Hyperlipidaemia, related severe AE (150 mg, N = 9) | Hypovolaemia, related serious AE (150 mg, N = 9) | Injection site reaction, treatment-related AE (150 mg, N = 9) | Pyrexia, related AE leading to discontinuation (150 mg, N = 9) | Pyrexia, related serious AE (150 mg, N = 9) | Pyrexia, related severe AE (150 mg, N = 9)
8 (34.8%): TEAE: Gastrointestinal disorders (Mild, Related, Safety Set)
5 (56) n (%): Hypertension, related severe AE (150 mg, N = 9) | Hypertension, treatment-related AE (150 mg, N = 9) | Infusion-related reaction, treatment-related AE (150 mg, N = 9)
4 (17.4%): TEAE: Decreased appetite (Mild, Related, Safety Set)
2 (22) n (%): Decreased appetite, treatment-related AE (150 mg, N = 9)
1 (17) n (%): Pyrexia, treatment-related AE (100 mg, N = 6)
1 (4.3%): TEAE: Fatigue [2] | TEAE: Hyperuricaemia [2] | TEAE: Metabolism and nutritional disorders [2] | TEAE: Abdominal distension (Mild, Related, Safety Set) | TEAE: Abdominal pain lower (Mild, Related, Safety Set) | TEAE: Anaemia (Mild, Related, Safety Set) | TEAE: Asthenia (Mild, Related, Safety Set) | TEAE: Back pain (Mild, Related, Safety Set) | TEAE: Blood ALP increased (Mild, Related, Safety Set) | TEAE: Blood and lymphatic system disorders (Mild, Related, Safety Set) | TEAE: Blood cholesterol increased (Mild, Related, Safety Set) | TEAE: Blood triglycerides increased (Mild, Related, Safety Set) | TEAE: Constipation (Mild, Related, Safety Set) | TEAE: Cough (Mild, Related, Safety Set) | TEAE: Diplopia (Mild, Related, Safety Set) | TEAE: Dizziness (Mild, Related, Safety Set) | TEAE: Dysgeusia (Mild, Related, Safety Set) | TEAE: Dyspepsia (Mild, Related, Safety Set) | TEAE: Eye disorders (Mild, Related, Safety Set) | TEAE: Fall (Mild, Related, Safety Set) | TEAE: Fatigue (Mild, Related, Safety Set) | TEAE: Hypercholesterolaemia (Mild, Related, Safety Set) | TEAE: Hypovolaemia (Mild, Related, Safety Set) | TEAE: Infusion related reaction (Mild, Related, Safety Set) | TEAE: Low density lipoprotein increased (Mild, Related, Safety Set) | TEAE: Malaise (Mild, Related, Safety Set) | TEAE: Musculoskeletal pain (Mild, Related, Safety Set) | TEAE: Oxygen saturation decreased (Mild, Related, Safety Set) | TEAE: Peripheral coldness (Mild, Related, Safety Set) | TEAE: Rash (Mild, Related, Safety Set) | TEAE: Rash erythematous (Mild, Related, Safety Set) | TEAE: Respiratory, thoracic and mediastinal disorders (Mild, Related, Safety Set) | TEAE: Vascular disorders (Mild, Related, Safety Set) | TEAE: Abdominal distension (Mild, Unrelated, Safety Set) | TEAE: Abdominal pain upper (Mild, Unrelated, Safety Set) | TEAE: Ascites (Mild, Unrelated, Safety Set) | TEAE: Blood ALP increased (Mild, Unrelated, Safety Set)
Three: Dose-limiting toxicities (DLTs), number (150 mg cohort, first cycle)
2 (8.7%): TEAE: Death [2] | TEAE: Chills (Mild, Related, Safety Set) | TEAE: Headache (Mild, Related, Safety Set) | TEAE: Injection site reaction (Mild, Related, Safety Set) | TEAE: Injury, poisoning and procedural complications (Mild, Related, Safety Set) | TEAE: Musculoskeletal and connective tissue disorders (Mild, Related, Safety Set) | TEAE: Skin and subcutaneous tissue disorders (Mild, Related, Safety Set) | TEAE: Abdominal pain (Mild, Unrelated, Safety Set) | TEAE: Anxiety (Mild, Unrelated, Safety Set) | TEAE: Back pain (Mild, Unrelated, Safety Set)
170 mm Hg: Systolic pressure during hypertension events, increase to [1]
5 (21.7%): TEAE: At least one event [2] | TEAE: Metabolism and nutritional disorders (Mild, Related, Safety Set) | TEAE: Pyrexia (Mild, Related, Safety Set)
3 (13.0%): TEAE: GGT increased [2] | TEAE: General disorders and administration site conditions [2] | TEAE: Investigations [2] | TEAE: Investigations (Mild, Related, Safety Set) | TEAE: Nervous system disorders (Mild, Related, Safety Set)
0 (0.0%): TEAE: At least one event (Life threatening/Fatal, Related, Safety Set)
16 (70.0%): TEAE: At least one event (Mild, Related, Safety Set)
